Measurements taken from US8580832B2, “Substituted phenoxy aminothiazolones as estrogen related receptor-α modulators” (Janssen Pharmaceutica N.V., priority 2007, dated 2013).

molecular target: T1, ERR1 (also known as ERR-α or ERR-1) (Homo sapiens, UniProt P11474); test: TR-FRET assay: disruption of co-activator peptide binding to ERR1 LBD; assay type: biochemical; conditions: 6His-tagged ERR1 LBD 6 nM, GST-SRC-2 peptide 6 nM, 25° C., 4-18 hours; average of 3 independent experiments
T1 construct: the ^6His-tagged-ERR1 LBD
T1 sequence (P11474 193-421 limits assumed): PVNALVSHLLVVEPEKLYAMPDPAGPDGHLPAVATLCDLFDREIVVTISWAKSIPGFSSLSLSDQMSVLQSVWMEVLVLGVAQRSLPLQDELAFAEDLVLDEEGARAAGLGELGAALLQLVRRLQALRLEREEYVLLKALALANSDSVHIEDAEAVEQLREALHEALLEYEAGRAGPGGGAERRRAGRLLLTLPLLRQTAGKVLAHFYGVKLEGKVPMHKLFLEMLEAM
Protocol: Time-Resolved Fluorescence Resonance Energy Transfer (TR-FRET) experiments were performed to examine the functional response of ERR1 (also known as ERR-α or ERR-1) ligands. The TR-FRET assay described herein relied on the conformation of ERR1 for binding to a co-activator peptide: when a test compound binds to ERR1 and alters its conformation, it can disrupt the binding of the co-activator peptide. The components of this homogeneous secondary assay included: the ^6His-tagged-ERR1 LBD, a GST-labeled-hSRC2 co-activator polypeptide and a fluorescent donor/acceptor pair from CIS bio international htrf/bioassays (Bedford, Mass.) using both an α-GST Europium Cryptate (Eu) label and an α^6His-XL665 (allophycocyanin) fluorophore.
For TR-FRET measurements, the reaction was buffered in 25 mM Tris pH 8, 2.5 mM Hepes, 20 mM KCl, 1 mM DTT, and 0.05 mg/mL BSA (-lipids). […] Reactions were allowed to reach equilibrium at 25° C. for 4-18 hours before collecting data on the Analyst from LJL Biosystems (Molecular Devices Sunnyvale, Calif.). […] Dose response curves were fitted using a hyperbolic equation and the data reported is the average of 3 independent experiments.

Q: For COc1cc(/C=C2\SC(N)=NC2=O)ccc1Oc1ccc(C#N)cc1C(F)(F)F [Compound 1, 4-[4-(2-Amino-4-oxo-4H-thiazol-5-ylidenemethyl)-2-methoxy-phenoxy]-3-trifluoromethyl-benzonitrile], which EC50 is on record?
A: The EC50 was 12 nM.

Q: With COc1cc(/C=C2\SC(N)=NC2=O)ccc1Oc1ccc(C#N)cc1Cl [Compound 2, 4-[4-(2-Amino-4-oxo-4H-thiazol-5-ylidenemethyl)-2-methoxy-phenoxy]-3-chloro-benzonitrile] as the molecule, how does the EC50 read?
A: Its EC50 is 210 nM.

Q: Which EC50 does the source give for N#Cc1ccc(Oc2ccc(/C=C3\SC(N)=NC3=O)cc2Cl)c(C(F)(F)F)c1 [Compound 3, 4-[2-Chloro-4-(2-imino-4-oxo-thiazolidin-5-ylidenemethyl)-phenoxy]-3-trifluoromethyl-benzonitrile] here?
A: The EC50 was 87 nM.

Q: For N#Cc1ccc(Oc2ccc(/C=C3\SC(N)=NC3=O)cc2F)c2ccccc12 [Compound 4, 4-[2-Fluoro-4-(2-imino-4-oxo-thiazolidin-5-ylidenemethyl)-phenoxy]-naphthalene-1-carbonitrile], which EC50 is on record?
A: Its EC50 is 18 nM.

Q: With COc1cc(/C=C2\SC(N3CCOCC3)=NC2=O)ccc1Oc1ccc(C#N)cc1C(F)(F)F [Compound 5, 4-[2-Methoxy-4-(2-morpholin-4-yl-4-oxo-4H-thiazol-5-ylidenemethyl)-phenoxy]-3-trifluoromethyl-benzonitrile] as the molecule, how does the EC50 read?
A: The EC50 was 20 nM.

Q: N#Cc1ccc(Oc2ccc(/C=C3\SC(N4CCOCC4)=NC3=O)cc2F)c(C(F)(F)F)c1 [Compound 6, 4-[2-Fluoro-4-(2-morpholin-4-yl-4-oxo-4H-thiazol-5-ylidenemethyl)-phenoxy]-3-trifluoromethyl-benzonitrile] was tested. Which EC50 did it give?
A: The EC50 was 50 nM.

Q: With COc1cc(/C=C2\SC(N3CCN(C)CC3)=NC2=O)ccc1Oc1ccc(C#N)cc1C(F)(F)F [Compound 7, 4-{2-Methoxy-4-[2-(4-methyl-piperazin-1-yl)-4-oxo-4H-thiazol-5-ylidenemethyl]-phenoxy}-3-trifluoromethyl-benzonitrile] as the molecule, how does the EC50 read?
A: The EC50 was 11 nM.

Q: Which EC50 does the source give for CN1CCN(C2=NC(=O)/C(=C/c3ccc(Oc4ccc(C#N)cc4C(F)(F)F)c(F)c3)S2)CC1 [Compound 8, 4-{2-Fluoro-4-[2-(4-methyl-piperazin-1-yl)-4-oxo-4H-thiazol-5-ylidenemethyl]-phenoxy}-3-trifluoromethyl-benzonitrile] here?
A: The EC50 was 14 nM.

Q: For COc1cc(/C=C2\SC(NC3CC3)=NC2=O)ccc1Oc1ccc(C#N)cc1C(F)(F)F [Compound 9, 4-[4-(2-Cyclopropylamino-4-oxo-4H-thiazol-5-ylidenemethyl)-2-methoxy-phenoxy]-3-trifluoromethyl-benzonitrile], which EC50 is on record?
A: The EC50 was 15 nM.

Q: Which EC50 does the source give for N#Cc1ccc(Oc2ccc(/C=C3\SC(NC4CC4)=NC3=O)cc2F)c(C(F)(F)F)c1 [Compound 10, 4-[4-(2-Cyclopropylamino-4-oxo-4H-thiazol-5-ylidenemethyl)-2-fluoro-phenoxy]-3-trifluoromethyl-benzonitrile] here?
A: The EC50 was 52 nM.

Q: For COc1cc(/C=C2\SC(N(C)CCN(C)C)=NC2=O)ccc1Oc1ccc(C#N)cc1C(F)(F)F [Compound 11, 4-(4-{2-[(2-Dimethylamino-ethyl)-methyl-amino]-4-oxo-4H-thiazol-5-ylidenemethyl}-2-methoxy-phenoxy)-3-trifluoromethyl-benzonitrile], which EC50 is on record?
A: The EC50 was 19 nM.

Q: How did the EC50 turn out when COc1cc(/C=C2\SC(N(CCO)CCO)=NC2=O)ccc1Oc1ccc(C#N)cc1C(F)(F)F [Compound 12, 4-(4-{2-[Bis-(2-hydroxy-ethyl)-amino]-4-oxo-4H-thiazol-5-ylidenemethyl}-2-methoxy-phenoxy)-3-trifluoromethyl-benzonitrile] was run?
A: Its EC50 is 25 nM.

Q: For COc1cc(/C=C2\SC(NC3CCNC3)=NC2=O)ccc1Oc1ccc(C#N)cc1C(F)(F)F (centres unmarked) [Compound 13, 4-{2-Methoxy-4-[4-oxo-2-(pyrrolidin-3-ylamino)-4H-thiazol-5-ylidenemethyl]-phenoxy}-3-trifluoromethyl-benzonitrile], which EC50 is on record?
A: The EC50 was 34 nM.

Q: With COc1cc(/C=C2\SC(NC3CCN(C)CC3)=NC2=O)ccc1Oc1ccc(C#N)cc1C(F)(F)F [Compound 14, 4-{2-Methoxy-4-[2-(1-methyl-piperidin-4-ylamino)-4-oxo-4H-thiazol-5-ylidenemethyl]-phenoxy}-3-trifluoromethyl-benzonitrile] as the molecule, how does the EC50 read?
A: Its EC50 is 13 nM.

Q: How did the EC50 turn out when COc1cc(/C=C2\SC(NC3CCOCC3)=NC2=O)ccc1Oc1ccc(C#N)cc1C(F)(F)F [Compound 15, 4-{2-Methoxy-4-[4-oxo-2-(tetrahydro-pyran-4-ylamino)-4H-thiazol-5-ylidenemethyl]-phenoxy}-3-trifluoromethyl-benzonitrile] was run?
A: Its EC50 is 18 nM.

Q: Which EC50 does the source give for COc1cc(/C=C2\SC(N3CCN(CCO)CC3)=NC2=O)ccc1Oc1ccc(C#N)cc1C(F)(F)F [Compound 16, 4-(4-{2-[4-(2-Hydroxy-ethyl)-piperazin-1-yl]-4-oxo-4H-thiazol-5-ylidenemethyl}-2-methoxy-phenoxy)-3-trifluoromethyl-benzonitrile] here?
A: Its EC50 is 19 nM.

Q: For COc1cc(/C=C2\SC(NCc3ccccn3)=NC2=O)ccc1Oc1ccc(C#N)cc1C(F)(F)F [Compound 17, 4-(2-Methoxy-4-{4-oxo-2-[(pyridin-2-ylmethyl)-amino]-4H-thiazol-5-ylidenemethyl}-phenoxy)-3-trifluoromethyl-benzonitrile], which EC50 is on record?
A: The EC50 was 29 nM.

Q: With COCCNC1=NC(=O)/C(=C/c2ccc(Oc3ccc(C#N)cc3C(F)(F)F)c(OC)c2)S1 [Compound 18, 4-{2-Methoxy-4-[2-(2-methoxy-ethylamino)-4-oxo-4H-thiazol-5-ylidenemethyl]-phenoxy}-3-trifluoromethyl-benzonitrile] as the molecule, how does the EC50 read?
A: Its EC50 is 112 nM.

Q: How did the EC50 turn out when COc1cc(/C=C2\SC(NCc3cccnc3)=NC2=O)ccc1Oc1ccc(C#N)cc1C(F)(F)F [Compound 19, 4-(2-Methoxy-4-{4-oxo-2-[(pyridin-3-ylmethyl)-amino]-4H-thiazol-5-ylidenemethyl}-phenoxy)-3-trifluoromethyl-benzonitrile] was run?
A: Its EC50 is 18 nM.

Q: For COc1cc(/C=C2\SC(NCCN3CCCC3)=NC2=O)ccc1Oc1ccc(C#N)cc1C(F)(F)F [Compound 20, 4-{2-Methoxy-4-[4-oxo-2-(2-pyrrolidin-1-yl-ethylamino)-4H-thiazol-5-ylidenemethyl]-phenoxy}-3-trifluoromethyl-benzonitrile], which EC50 is on record?
A: Its EC50 is 32 nM.

Q: Which EC50 does the source give for COc1cc(/C=C2\SC(N3CCNC(=O)C3)=NC2=O)ccc1Oc1ccc(C#N)cc1C(F)(F)F [Compound 21, 4-{2-Methoxy-4-[4-oxo-2-(3-oxo-piperazin-1-yl)-4H-thiazol-5-ylidenemethyl]-phenoxy}-3-trifluoromethyl-benzonitrile] here?
A: Its EC50 is 9 nM.

Q: With COc1cc(/C=C2\SC(NCCCN3CCCC3=O)=NC2=O)ccc1Oc1ccc(C#N)cc1C(F)(F)F [Compound 22, 4-(2-Methoxy-4-{4-oxo-2-[3-(2-oxo-pyrrolidin-1-yl)-propylamino]-4H-thiazol-5-ylidenemethyl}-phenoxy)-3-trifluoromethyl-benzonitrile] as the molecule, how does the EC50 read?
A: Its EC50 is 9 nM.

Q: COc1cc(/C=C2\SC(N(C)CC(O)CO)=NC2=O)ccc1Oc1ccc(C#N)cc1C(F)(F)F (centres unmarked) [Compound 23, 4-(4-{2-[(2,3-Dihydroxy-propyl)-methyl-amino]-4-oxo-4H-thiazol-5-ylidenemethyl}-2-methoxy-phenoxy)-3-trifluoromethyl-benzonitrile] was tested. Which EC50 did it give?
A: The EC50 was 9 nM.

Q: Which EC50 does the source give for COc1cc(/C=C2\SC(NCc3ccncc3)=NC2=O)ccc1Oc1ccc(C#N)cc1C(F)(F)F [Compound 24, 4-(2-Methoxy-4-{4-oxo-2-[(pyridin-4-ylmethyl)-amino]-4H-thiazol-5-ylidenemethyl}-phenoxy)-3-trifluoromethyl-benzonitrile] here?
A: The EC50 was 16 nM.

Q: Which EC50 does the source give for COc1cc(/C=C2\SC(NCCN3CCCCC3)=NC2=O)ccc1Oc1ccc(C#N)cc1C(F)(F)F [Compound 25, 4-{2-Methoxy-4-[4-oxo-2-(2-piperidin-1-yl-ethylamino)-4H-thiazol-5-ylidenemethyl]-phenoxy}-3-trifluoromethyl-benzonitrile] here?
A: Its EC50 is 18 nM.

Q: How did the EC50 turn out when COc1cc(/C=C2\SC(NCCCN(C)C)=NC2=O)ccc1Oc1ccc(C#N)cc1C(F)(F)F [Compound 26, 4-{4-[2-(3-Dimethylamino-propylamino)-4-oxo-4H-thiazol-5-ylidenemethyl]-2-methoxy-phenoxy}-3-trifluoromethyl-benzonitrile] was run?
A: Its EC50 is 13 nM.

Q: With COc1cc(/C=C2\SC(NCCCN3CCOCC3)=NC2=O)ccc1Oc1ccc(C#N)cc1C(F)(F)F [Example 27, 4-{2-Methoxy-4-[2-(3-morpholin-4-yl-propylamino)-4-oxo-4H-thiazol-5-ylidenemethyl]-phenoxy}-3-trifluoromethyl-benzonitrile] as the molecule, how does the EC50 read?
A: The EC50 was 11 nM.

Q: With COc1cc(/C=C2\SC(NCCc3ccncc3)=NC2=O)ccc1Oc1ccc(C#N)cc1C(F)(F)F [Example 28, 4-{2-Methoxy-4-[4-oxo-2-(2-pyridin-4-yl-ethylamino)-4H-thiazol-5-ylidenemethyl]-phenoxy}-3-trifluoromethyl-benzonitrile] as the molecule, how does the EC50 read?
A: The EC50 was 7 nM.

Q: COc1cc(/C=C2\SC(NCCc3cccnc3)=NC2=O)ccc1Oc1ccc(C#N)cc1C(F)(F)F [Example 29, 4-{2-Methoxy-4-[4-oxo-2-(2-pyridin-3-yl-ethylamino)-4H-thiazol-5-ylidenemethyl]-phenoxy}-3-trifluoromethyl-benzonitrile] was tested. Which EC50 did it give?
A: Its EC50 is 12 nM.
